From ChEMBL document CHEMBL1201862, “PubChem BioAssay data set” (2004)
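Step 1: Grow cells in 96-well plates. Step 2: Expose to compound for 48 hours at 5 concentrations. Step 3: Interpolate endpoints linearly; if unreached, use highest concentration. Abbreviation: GI50, concentration required for 50% inhibition of growth.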 Active and inactive are the calls of the source. Rule as the data show it: active = GI50 up to about 1.1 µM and inactive = higher.

Tests used:
Assay in all cases: NCI anticancer screen, dose series, 48 h
A549 = test system: A549
ACHN = test system: ACHN
HCC 2998 = test system: HCC 2998
LOX IMVI = test system: LOX IMVI
M14 = test system: M14
MCF7 = test system: MCF7
MDA-N = test system: MDA-N
MOLT-4 = test system: MOLT-4
Malme-3M = test system: Malme-3M
OVCAR-3 = test system: OVCAR-3
OVCAR-5 = test system: OVCAR-5
SK-MEL-28 = test system: SK-MEL-28
SK-MEL-5 = test system: SK-MEL-5
SK-OV-3 = test system: SK-OV-3
SN12C = test system: SN12C
U-251 = test system: U-251
UACC-257 = test system: UACC-257
UACC-62 = test system: UACC-62
UO-31 = test system: UO-31
HOP-92 = test system: HOP-92

SMILES | GI50 (A549) | GI50 (ACHN) | GI50 (HCC 2998) | GI50 (LOX IMVI) | GI50 (M14) | GI50 (MCF7) | GI50 (MDA-N) | GI50 (MOLT-4) | GI50 (Malme-3M) | GI50 (OVCAR-3) | GI50 (OVCAR-5) | GI50 (SK-MEL-28) | GI50 (SK-MEL-5) | GI50 (SK-OV-3) | GI50 (SN12C) | GI50 (U-251) | GI50 (UACC-257) | GI50 (UACC-62) | GI50 (UO-31) | GI50 (HOP-92)
Clc1ccc(-c2nc(-c3ccc(Cl)cc3)[s+]s2)cc1 | 39.9 µM (inactive) | 38.6 µM (inactive) | > 100 µM (inactive) | 33.1 µM (inactive) | > 100 µM (inactive) | 37.3 µM (inactive) | > 100 µM (inactive) | 26.6 µM (inactive) | 18.7 µM (inactive) | 51.2 µM (inactive) | > 100 µM (inactive) | 59.7 µM (inactive) | 47.8 µM (inactive) | 41.1 µM (inactive) | 96.4 µM (inactive) | 30.4 µM (inactive) | 55.2 µM (inactive) | 52.2 µM (inactive) | > 100 µM (inactive) | –
C/C=C1\CC(C(=O)OCC)CCCCCCC1=O (centres undefined) | > 100 µM (inactive) | > 100 µM (inactive) | – | > 100 µM (inactive) | > 100 µM (inactive) | > 100 µM (inactive) | > 100 µM (inactive) | > 100 µM (inactive) | > 100 µM (inactive) | – | > 100 µM (inactive) | > 100 µM (inactive) | > 100 µM (inactive) | > 100 µM (inactive) | > 100 µM (inactive) | > 100 µM (inactive) | > 100 µM (inactive) | 59.2 µM (inactive) | > 100 µM (inactive) | –
COCCNc1cncc(C(N)=O)c1 | > 100 µM (inactive) | > 100 µM (inactive) | > 100 µM (inactive) | – | > 100 µM (inactive) | > 100 µM (inactive) | > 100 µM (inactive) | > 100 µM (inactive) | – | > 100 µM (inactive) | > 100 µM (inactive) | > 100 µM (inactive) | > 100 µM (inactive) | > 100 µM (inactive) | > 100 µM (inactive) | > 100 µM (inactive) | > 100 µM (inactive) | > 100 µM (inactive) | > 100 µM (inactive) | –
COc1ccc(-c2c(C#N)c(S)n(NS(=O)(=O)c3ccccc3)c(=O)c2C#N)cc1 | 56.2 µM (inactive) | 55.7 µM (inactive) | > 100 µM (inactive) | 35.9 µM (inactive) | 58.6 µM (inactive) | 59.6 µM (inactive) | 45.6 µM (inactive) | 53.2 µM (inactive) | > 96.6 µM (inactive) | 87.9 µM (inactive) | > 100 µM (inactive) | > 100 µM (inactive) | 36.7 µM (inactive) | > 100 µM (inactive) | 46.5 µM (inactive) | 40.4 µM (inactive) | 80.9 µM (inactive) | 34.5 µM (inactive) | 65 µM (inactive) | –
N#Cc1nc(CCCN2C(=O)c3ccccc3C2=O)oc1N | > 100 µM (inactive) | > 100 µM (inactive) | > 100 µM (inactive) | > 100 µM (inactive) | > 100 µM (inactive) | > 100 µM (inactive) | > 100 µM (inactive) | > 100 µM (inactive) | > 100 µM (inactive) | > 100 µM (inactive) | > 100 µM (inactive) | > 100 µM (inactive) | > 100 µM (inactive) | > 100 µM (inactive) | > 100 µM (inactive) | > 100 µM (inactive) | > 100 µM (inactive) | – | > 100 µM (inactive) | –
N#Cc1c(-c2ccccc2)cc(-c2ccccc2)n(C2OCC(O)C(O)C2O)c1=S (centres undefined) | 22.8 µM (inactive) | 18.3 µM (inactive) | – | 18.1 µM (inactive) | 27.2 µM (inactive) | 20.1 µM (inactive) | 17.3 µM (inactive) | 16.7 µM (inactive) | 30.7 µM (inactive) | 22.3 µM (inactive) | 24.8 µM (inactive) | 26.6 µM (inactive) | 14.7 µM (inactive) | 11.7 µM (inactive) | > 10 µM (inactive) | 15.3 µM (inactive) | 33.3 µM (inactive) | 1.66 µM (inactive) | 19 µM (inactive) | –
C/C(=N\N=C(/S)N(C)C)c1cccnn1 | 0.832 µM (active) | 0.0796 µM (active) | 7.46 µM (inactive) | 0.495 µM (active) | 0.594 µM (active) | 0.726 µM (active) | 0.752 µM (active) | 0.188 µM (active) | 0.76 µM (active) | 0.424 µM (active) | 1.06 µM (active) | 1.29 µM (inactive) | 0.486 µM (active) | 1.26 µM (inactive) | 1.1 µM (active) | 0.977 µM (active) | 0.438 µM (active) | 0.486 µM (active) | 0.564 µM (active) | –
Cc1cc(C#N)c(Nc2c(C)cccc2[N+](=O)[O-])s1 | 46.3 µM (inactive) | 49.7 µM (inactive) | 87.7 µM (inactive) | – | > 100 µM (inactive) | – | 97.7 µM (inactive) | 92 µM (inactive) | 40.2 µM (inactive) | 29.5 µM (inactive) | 12.4 µM (inactive) | 76.9 µM (inactive) | – | 35.4 µM (inactive) | > 100 µM (inactive) | 35.7 µM (inactive) | 39.3 µM (inactive) | 37.9 µM (inactive) | > 100 µM (inactive) | 24.3 µM (inactive)
